According to patent US5510366A, “Indole derivatives, salts thereof, and congestive heart failure therapeutic agents comprising the same” (Kowa Co., Ltd., priority 1993, dated 1996):
Structures can show the parent of a compound that is named as a salt.

Test system: atrium specimen
Assay: Inotropic action in atrium specimen and anti-chronotropic action in guinea pigs
Conditions: Cavia porcellus; guinea pig atrium; 10^-5 M; "light atrium", left atrium stimulated at 1 Hz; read-out: Rate contraction increase (%)
Procedure: <Inoropic action in atrium specimen and anti-chronotropic action in guinea pigs>
After bruising on the head, guinea pigs were dehematized by sectioning carotid arteries and their heart was enucleated. Right and left atriums were taken out. These atriums were suspended in Krebs-Henseleit solution wherein 95% O2-5 % CO2 was bubbled. The tension was measured by a strain gauge and recorded via an amplifier. Pulsation at the right atrium was counted via a tachometer to determine the heart rate. Electric stimulation, twice a magnitude of the ceiling value at 1 Hz, 5 msec, was given to the left atrium. The test compound was administered at an interval of 5 minutes.
The results, shown in Table 2, indicate the rate of contraction increase of the light atrium at a dose of 10^-5 M of the test compound.

Compared with `CC[C@H]1c2cc(C)c3c(c2O[C@H]1CN)C(C)(C)C(=O)N3` (relative stereo) [Example 7 (6)(b), (2R* ,3S*)-2-aminomethyl-3-ethyl-2,3,7,8-tetrahydro-5,8,8-trimethyl-6H-furo 2,3-e!indol-7-one.cndot.hydrochloride], `Cc1cc2c(c3c1NC(=O)C3(C)C)OC(CN)C2` (centres unmarked) [Example 1 (9), 2-Aminomethyl-2,3,7,8-tetrahydro-5,8,8-trimethyl-6H-furo 2,3-e!indol-7-onehydrochloride] is lower in activation at 10 µM: 27% for the first, 13% for the second.

Going from `Cc1cc2c(c3c1NC(=O)C3(C)C)O[C@@](C)(CN)[C@@H]2C` (relative stereo) [Example 55 (B isomer), (2R*,3R*)-2-aminomethyl-2,3,5,8,8-pentamethyl-2,3,7,8-tetrahydro-6H-furo 2 ,3-e!indol-7one.cndot.hydrochloride] to `Cc1cc2c(c3c1NC(=O)C3(C)C)OC(C)(CN)C2` (centres unmarked) [Example 2 (8), 2-Aminomethyl-2,3,7,8-tetrahydro-2,5,8,8-tetramethyl-6H-furo 2,3-e!indol-7-one.cndot.hydrochloride], the activation at 10 µM falls from 24% to 23%.

Going from `CNCC1Cc2cc(C)c3c(c2O1)C(C)(C)C(=O)N3` (centres unmarked) [Example 14, 2-Methylaminomethyl-2,3,7,8-tetrahydro-5,8,8-trimethyl-6H-furo 2,3-e!indol-7-one.cndot.hydrochloride] to `Cc1cc2c(c3c1NC(=O)C3(C)C)OC(CN1CCCCC1)C2` (centres unmarked) [Example 19, 2-(1-Piperidinyl)methyl-2,3,7,8-tetrahydro-5,8,8-trimethyl-6H-furo 2,3-e!in dol-7-one.cndot.hydrochloride], the activation at 10 µM rises from 20% to 28%.

Compared with `CCCCCCc1cc2c(c3c1NC(=O)C3(C)C)OC(CN)C2` (centres unmarked) [Example 25 (9), 2-Aminomethyl-8,8-dimethyl-5-n-hexyl-2,3,7,8-tetrahydro-6H-furo 2,3-e!indol-7-one.cndot.hydrochloride], `Cc1c(C)c2c(c3c1CC(CN)O3)C(C)(C)C(=O)N2` (centres unmarked) [Example 30 (8)HCl, 2-Aminomethyl-2,3,7,8-tetrahydro-4,5,8,8-tetramethyl-6H-furo 2,3-e!indol-7-one.cndot.hydrochloride] is lower in activation at 10 µM: 46% for the first, 28% for the second.

Test system: hind-leg blood flow
Assay: Action on hind-leg blood flow in anesthetized dogs
Type: in vivo, Hybrid adult dogs
Conditions: 100 μg into femoral artery
Procedure: <Action on hind-leg blood flow in anesthetized dogs>
Hybrid adult dogs were anesthetized by intravenous injection of 30 mg/kg of sodium pentobarbital. After administration of heparin, an extracorporeal circulation circuit was formed in femoral artery. The blood flows at hind-legs were measured by fixing an electromagnetic blood flow meter probe in the circuit. The test compound at a dose of 100 μg was administered into femoral artery via a tube provided in the circuit. The results in Table 3 show the rate of blood flow increase.

With `Cc1cc2c(c3c1NC(=O)C3(C)C)OC(CN)C2.Cl` (centres unmarked) [Example 1 (a), 2-Aminomethyl-2,3,7,8-tetrahydro-5,8,8-trimethyl-6H-furo 2,3-e!indol-7-onehydrochloride] the “Rate of blood flow increase (%)” value was 192%.

Same assay, conditions: Canis lupus familiaris, 100 μg into femoral artery, read-out: Rate of blood flow increase (%)

Going from `Cc1cc2c(c3c1NC(=O)C3(C)C)O[C@@H](CN)[C@@H]2C` (relative stereo) [Example 3 (5) (Former component), (2R*,3R*)-2-aminomethyl-2,3,7,8-tetrahydro-3,5,8,8-tetramethyl-6H-furo 2,3-e!indol-7-one.cndot.hydrochloride] to `Cc1cc2c(c3c1NC(=O)C3(C)C)OCC2CN` (centres unmarked) [Example 13 (3), 3-Aminomethyl-2,3,7,8-tetrahydro-5,8,8-trimethyl-6H-furo 2,3-e!indol-7-one.cndot.hydrochloride], the change in vivo at 0.1 mg falls from 128% to 55%.

First: Cc1cc2c(c3c1NC(=O)C3(C)C)O[C@@](C)(CN)[C@@H]2C (relative stereo) [Example 55 (B isomer), (2R*,3R*)-2-aminomethyl-2,3,5,8,8-pentamethyl-2,3,7,8-tetrahydro-6H-furo 2 ,3-e!indol-7one.cndot.hydrochloride]
Second: CCc1cc2c(c3c1NC(=O)C3(C)C)OC(CN)C2 (centres unmarked) [Example 26 (6), 2-Aminomethyl-8,8-dimethyl-5-ethyl-2,3,7,8-tetrahydro-6H-furo 2,3-e!indol-7-one.cndot.hydrochloride]
The change in vivo at 0.1 mg of the first is lower: 55% for the first, 216% for the second.

Going from `Cc1cc2c(c3c1NC(=O)C3(C)C)OC(Cn1ccnc1)C2` (centres unmarked) [Example 16, 2-(1-Imidazolyl)methyl-2,3,7,8-tetrahydro-5,8,8-trimethyl-6H-furo 2,3-e!indol-7-one.cndot.hydrochloride] to `Cc1cc2c(c3c1NC(=O)C3(C)C)OC(CN1CCNCC1)C2` (centres unmarked) [Example 22, 2-(1-Piperadinyl)methyl-2,3,7,8-tetrahydro-5,8,8-trimethyl-6H-furo 2,3-e!in dol-7-one.cndot.dihydrochloride], the change in vivo at 0.1 mg rises from 90% to 121%.

First: CCCCNCC1Cc2cc(C)c3c(c2O1)C(C)(C)C(=O)N3 (centres unmarked) [Example 18, 2-n-Butylaminomethyl-2,3,7,8-tetrahydro-5,8,8-trimethyl-6H-furo 2,3-e!indol-7-one.cndot.hydrochloride]
Second: Cc1cc2c(c3c1NC(=O)C3(C)C)OC(CN1CCN(Cc3ccccc3)CC1)C2 (centres unmarked) [Example 20, 2-(4-Benzyl-1-piperadinyl)methyl-2,3,7,8-tetrahydro-5,8,8-trimethyl-6H-furo 2,3-e!indol-7-one.cndot.dihydrochloride]
The change in vivo at 0.1 mg of the first is higher: 145% for the first, 96% for the second.

Compound `COc1ccc(C(=O)N2CCN(CC3Cc4cc(C)c5c(c4O3)C(C)(C)C(=O)N5)CC2)cc1OC` (centres unmarked) [Example 23, 2-4-(3,4-dimethoxybenzoyl)-1-piperadinyl!methyl-2,3,7,8-tetrahydro-5,8,8-trimethyl-6H-furo 2,3-e!indol-7-one.cndot.hydrochloride] has a change in vivo at 0.1 mg of 81%.

Test system: ventricular fibrillation
Assay: Antiarrhythmic action against chloroform in mice (suppression of ventricular fibrillation)
Type: in vivo
Conditions: Mus musculus, 20 min, 100 mg/kg, 20 minutes before chloroform, read-out: Rate of suppression (%) of ventricular fibrillation
Procedure: <Antiarrhythmic action against chloroform in mice>
A test compound was administered to mice at a dose of 100 mg/kg. After 20 minutes, mice were placed in a pot filled with chloroform. Mice were taken out immediately after respiratory arrest. Electrocardiogram was recorded at the 11th induction, and ventricular tachycardia, ventricular fibrillation, and the time until cardiac arrest were measured.

`Cc1cc2c(c3c1NC(=S)C3(C)C)O[C@@H](CN)[C@@H]2C` (relative stereo) [Example 35, (2R*,3R*)-2-aminomethyl-2,3,7,8-tetrahydro-3,5,8,8-tetramethyl-6H-furo 2,3-e!indol-7-thione.cndot.hydrochloride] and `Cc1cc2c(c3c1NC(=O)C3(C)C)OC(CN(C)C)C2` (centres unmarked) [Example 17, 2-Dimethylaminomethyl-2,3,7,8-tetrahydro-5,8,8-trimethyl-6H-furo 2,3-e!indol-7-one.cndot.hydrochloride] are the same in inhibition in vivo at 100 mg/kg: 100% for the first, 100% for the second.

Going from `Cc1cc2c(c3c1NC(=O)C3(C)C)OC(CNCc1ccccc1)C2` (centres unmarked) [Example 15, 2-Benzylaminomethyl-2,3,7,8-tetrahydro-5,8,8-trimethyl-6H-furo 2,3-e!indol-7-one.cndot.hydrochloride] to `Cc1cc2c(c3c1NC(=O)C3(C)C)OC(Cn1ccnc1)C2` (centres unmarked) [Example 16, 2-(1-Imidazolyl)methyl-2,3,7,8-tetrahydro-5,8,8-trimethyl-6H-furo 2,3-e!indol-7-one.cndot.hydrochloride], the inhibition in vivo at 100 mg/kg falls from 100% to 90%.

Going from `CCCCCCc1cc2c(c3c1NC(=O)C3(C)C)OC(CN)C2` (centres unmarked) [Example 25 (9), 2-Aminomethyl-8,8-dimethyl-5-n-hexyl-2,3,7,8-tetrahydro-6H-furo 2,3-e!indol-7-one.cndot.hydrochloride] to `CCCCc1cc2c(c3c1NC(=O)C3(C)C)OC(CN)C2` (centres unmarked) [Example 28 (9)HCl, 2Aminomethyl-5-n-butyl-8,8-dimethyl-2,3,7,8-tetrahydro-6H-furo 2,3-e!indol-7-one.cndot.hydrochloride], the inhibition in vivo at 100 mg/kg falls from 100% to 90%.

`CCOC(=O)c1cc2c3c(ccc2[nH]1)CC(CN)O3` (centres unmarked) [Example 47 (5), 2-Aminomethyl-2,3-dihydro-7-ethoxycarbonyl-6H-furo 2,3-e!indole.cndot.hydrochloride] gave an inhibition in vivo at 100 mg/kg of 90%.

Same assay, conditions: Mus musculus, 20 min, Dose: 30 mg/kg, 20 minutes before chloroform, read-out: Rate of suppression (%) of ventricular fibrillation

For `Cc1cc2c(c3c1NC(=O)C3(C)C)O[C@@](C)(CN)[C@@H]2C` (relative stereo) [Example 55 (B isomer), (2R*,3R*)-2-aminomethyl-2,3,5,8,8-pentamethyl-2,3,7,8-tetrahydro-6H-furo 2 ,3-e!indol-7one.cndot.hydrochloride], the inhibition in vivo at 30 mg/kg was 100%.
